# Assay results taken from US9573972B2, “Nurotoxic sterol glycosides” (priority 2008, dated 2017).
# “Also recorded” adds a separate entry of the source. Marks after values point to notes of the source that are not given here.
# Experiments:
# Format in all cases: in vivo, mouse
# [1] = Body weights of SG-fed mice; conditions: SG-fed vs age-matched controls; SG 1000 μg per pellet daily for 15 weeks
# Excerpt: (§1) Five-month old male CD-1 mice (30.1-35.7 g, 7.5 cm-8.8 cm) were purchased from Charles River (Wilmington, Mass.). Adult mice were chosen to mimic the mean age of onset of ALS-PDC (Kurland, L. T. (1988a) Trends Neurosci. 11, 51-4; Kurland, L. T., et al. (1994) Amyotrophic lateral sclerosis-parkinsonism-dementia complex on Guam: epidemiologic and etiological perspectives. 109-131). Thirty mice for the SG study were randomly divided into 2 groups (14 control and 16 experimental animals). All animals were housed singly in a virus-free barrier facility in a room maintained at 22° C. under a 12 hour light/dark cycle. The mice were provided ad libitum access to food and water.
# (§2) The synthetic SG was mixed with finely ground Purina Chow mouse pellets (Mouse Diet™, Purina) to create the experimental pellets with a SG content of 1000 μg per pellet. Dry materials were blended with a sterile silicon spatula. For every 5 g of standard feed, 2.5 mL of doubly-distilled water (dd)H2O was added and the dough was kneaded and round up into pellets. A single sterol glucoside containing pellet was placed in the feeding tray each morning before the addition of regular mouse chow (ad libitum). All experimental pellets were entirely consumed by the mice each day. […] SG feeding was conducted daily for 15 weeks and mice were behaviorally monitored until sacrifice at 35 weeks (time point 1) or 52 weeks (time point 2).
# Phosphorylated Junser73 = test: Anti-pJun immunofluorescence
# Experimental: (§3) Tissue-mounted slides were processed for fluorescence microscopy as follows: Sections were rinsed in coplin jars for 45 minutes at room temperature (RT) in three changes of PBS. Sections were then incubated at RT for 30 minutes in a blocking permeabilization solution made of 5% normal goat serum (NGS), 5% normal rabbit serum (NRS) or 5% BlokHen II (Ayes Labs, Inc., Tigard, Oreg.), 0.05% Triton X-100 and PBS. Subsequently, the blocking solution was tipped off and the slides were rinsed in PBS for 2 minutes. […]
# [2] = system: Ionized calcium-binding adaptor molecule-1 (microglia); test: Anti-IBA-1 immunofluorescence, microglia counts; conditions: SG-fed group over time (35 to 52 wk)
# Experimental: as §3
# [3] = system: Activating transcription factor-3; test: Anti-ATF-3 immunofluorescence; conditions: for Anti-ATF-3, change: SG-fed vs control
# Experimental: as §3
# Heat shock protein-70 = test: Anti-Hsp-70 immunofluorescence; conditions: for Anti-Hsp-70 (VHLsc), change: ventral horn lumbar spinal cord; for Anti-Hsp-70 (VHLsc), change / Anti-Hsp-70 (VHTsc): SG-fed vs control; for Anti-Hsp-70 (VHTsc): ventral horn thoracic spinal cord
# Experimental: Tissue-mounted slides were processed for fluorescence microscopy as follows: Sections were rinsed in coplin jars for 45 minutes at room temperature (RT) in three changes of PBS. Sections were then incubated at RT for 30 minutes in a blocking permeabilization solution made of 5% normal goat serum (NGS), 5% normal rabbit serum (NRS) or 5% BlokHen II (Ayes Labs, Inc., Tigard, Oreg.), 0.05% Triton X-100 and PBS. Subsequently, the blocking solution was tipped off and the slides were rinsed in PBS for 2 minutes. Sections were then incubated overnight in a humidified chamber at 4° C. with a PBS buffered solution that contained 1% NGS or 1% NRS, 1% bovine serum albumin (BSA) and one of the following primary antibodies: (a) rabbit anti-human/mouse ATF-3 (H-90) IgG (polyclonal, 1:500; Santa Cruz Biotechnology, Inc., Santa Cruz, Calif.), (b) anti-activated caspase-3 IgG (monoclonal, 1:250; Chemicon International, Temecula, Calif.) (see FIG. 9), (c) goat antihuman/mouse choline acetyl transferase (ChAT) IgG (polyclonal, 1:100; Chemicon International, Temecula, Calif.) (see FIG. 6), (d) rabbit anti-mouse glial fibrillary acidic protein IgG (polyclonal, 1:250; GeneTex Inc., San Antonio, Tex.) (see FIG. 7), (e) rabbit antihuman/mouse ionized calcium binding adaptor molecule 1 (IBA-1) IgG (polyclonal, 1:500; Wako Pure Chemical Industries, Ltd, Richmond, Va.), (f) mouse anti-human/mouse clone AT8 PHF-1 Tau (monoclonal, 1:200; Pierce Biotechnology Inc., Rockford, Ill.), (g) rabbit anti-human/mouse TAR DNA-binding protein 43 (TDP43) (1:100; ProteinTech Group Inc., Chicago, Ill.) (See FIG. 14), (h) chicken anti-human/mouse β-tubulin 3 (TuJ1 antigen) (polyclonal, 1:100, Ayes Labs, Inc., Tigard, Oreg.), (i) rabbit anti-mouse tyrosine hydroxylase (polyclonal, 1:500, Chemicon International, Temecula, Calif. or polyclonal 1:1000, Affinity BioReagents, Golden, Colo.) (FIG. 10), (j) rabbit anti human/mouse anti-pJunscr73 IgG (polyclonal, 1:200; Chemicon International, Temecula, Calif.), (k) rabbit anti human/mouse anti-HSP-70 IgG (polyclonal, 1:200; Chemicon International, Temecula, Calif.), or (1) rabbit anti human/mouse anti-HSP-25 IgG (polyclonal, 1:100; Chemicon International, Temecula, Calif.). In each experiment, additional slides were incubated with the primary antibody and the secondary antibody omitted or with secondary antibody and primary antibody omitted to test for nonspecific staining. Where appropriate, positive control slides (Alzheimer's disease patient entorhinal cortex, obtained from Drs. Claudia Schwab and Patrick McGeer of the Kinsmen Laboratory, University of British Columbia, Vancouver, BC, Canada) were also processed as above for comparison. Following overnight incubation with the primary antibody, slides were rinsed for 45 minutes at RT in three changes of PBS. Immediately after, the slides were incubated in black chambers that excluded light for 1 hour at RT with the secondary antibody solutions containing 5% NGS or 5% NRS and fluorophore conjugated antibodies: AlexaFluor 568 goat anti-rabbit or rabbit anti-goat IgG (monoclonal, 1:250, absorption: 578 nm, emission 603 nm; Molecular Probes, Eugene, Oreg.), AlexaFluor 546 goat antirabbit or rabbit anti-goat IgG (monoclonal; 1:250, absorption 556 nm, emission 573 nm; Molecular Probes, Eugene, Oreg.) or fluorescein isothiocyanate (FITC) goat anti-rabbit IgG (polyclonal, 1:500, absorption: 494 nm, emission: 518 nm; Sigma, Saint Louis, Mo.). The secondary antibody solution was tipped off and slides were rinsed for 15 minutes in three changes of PBS. Tissue sections were cover-slipped with a 4′6 diamidino-2-phenylindole (DAPI) fluorescent mounting media (Vectashield, absorption: 360 nm, emission: 460 nm, Vector Laboratories, Burlington, ON, Canada) in order to label the nuclei and stored at 4° C. in dark slide boxes to retard bleaching of the fluorescent labels. […]
# male CD-1 mice = test: Leg extension reflex test, SG-fed mice
# Excerpt: as §1
# as §2, with “pellets.” for “pellets. A single sterol glucoside containing pellet was placed in the feeding tray each morning before the addition of regular mouse chow (ad libitum). All experimental pellets were entirely consumed by the mice each day.”
# Leg extension reflex test: The leg extension reflex test was used as a measure of motor neuron dysfunction (Barneoud et al., 1999). […] The leg extension reflex was measured three times per week in each animal. […]
# [4] = SG-fed group over time (35 to 52 wk)
# [5] = SG-fed vs control, Time-point 2 (52 wk)
structure (smiles),measurement,setting,value
"CC[C@H](/C=C/[C@@H](C)[C@H]1CC[C@H]2[C@@H]3CC=C4C[C@@H](O[C@@H]5O[C@H](CO)[C@@H](O)[C@H](O)[C@H]5O)CC[C@]4(C)[C@H]3CC[C@]12C)C(C)C [SG, Stigmasterol β-D-Glucopyranoside]",Body weights,[1],normal weight gain; also recorded: not significantly different
same,Anti-pJun immunoreactive cells over time,Phosphorylated Junser73; [4],Anti-pJun immunoreactive cells (SG-fed group over time) (ns)
same,"Anti-pJun, change","Phosphorylated Junser73; SG-fed vs control, Time-point 1 (35 wk)",Anti-pJun: +199%*
same,Anti-pJun,Phosphorylated Junser73; [5],Anti-pJun (ns)
same,Anti-IBA-1 immunoreactive cells over time,[2],Anti-IBA-1 immunoreactive cells (SG-fed group over time) (ns)
same,"Anti-ATF-3 immunoreactive cells over time, change",[3]; [4],Anti-ATF-3 immunoreactive cells (SG-fed group over time): −48%***
same,"Anti-ATF-3, change",[3]; Time-point 1 (35 wk),Anti-ATF-3: +242% ***
same,"Anti-ATF-3, change",[3]; Time-point 2 (52 wk),Anti-ATF-3: +101%**
same,Anti-Hsp-70 Lsc over time,Heat shock protein-70; [4],"Anti-Hsp-70 Lsc (SG-fed group over time) (ns, p = 0.1223)"
same,Anti-Hsp-70 Tsc over time,Heat shock protein-70; [4],"Anti-Hsp-70 Tsc (SG-fed group over time) (ns, p = 0.8319)"
same,"Anti-Hsp-70 (VHLsc), change",Heat shock protein-70; Time-point 1 (35 wk),Anti-Hsp-70: +1036%***
same,"Anti-Hsp-70 (VHLsc), change",Heat shock protein-70; Time-point 2 (52 wk),Anti-Hsp-70: +425%*
same,Anti-Hsp-70 (VHTsc),Heat shock protein-70; Time-point 1 (35 wk),"Anti-Hsp-70: (ns, p = 0.9697)"
same,Anti-Hsp-70 (VHTsc),Heat shock protein-70; Time-point 2 (52 wk),"Anti-Hsp-70: (ns, p = 0.2793)"
same,Leg extension,male CD-1 mice; [5],Leg extension* (*p < 0.05)
same,Leg extension reflex test performance (score 0-4),"male CD-1 mice; SG-fed, duration of study",decreased; also recorded: steady decline in performance
